Experimental data from patent publication US4971964A, “Pyridine derivatives” (priority 1988, dated 1990).

What was measured:
[1] = test system: silver nitrate-induced arteriothromboembolia in male Wistar-Shizuoka rats; assay: Test on Inhibition of Silver Nitrate-Induced Arteriothromboembolia in Rats; assay type: in vivo; details: for Number of Obstruction Case/Number of Experiments: control 23/26; for Percent Obstruction: control 88%
Description: Male Wistar -Shizuoka rats weighing 270±20 g were anesthetized with urethane (1.5 g/kg) intraperitoneally. Each animal was fixed on its back, and a venous cannula and an arterial cannula were inserted into the left carotid vein and the left femoral artery, respectively. An abdominal incision was made, the intestinal tract was put aside so that the descending abdominal aorta could be seen, the surrounding connective tissues were removed, the descending aorta was detached to a length of about 1 cm, and the detached descending aorta was put on a globe of 8 cm in diameter. A solvent (0.1 ml; physiological saline containing 0.05N sodium hydroxide) or a drug solution (0.1 ml) in the solvent was injected via the cannulated carotid vein per 100 g of body weight. Three minutes later, a 30% silver nitrate aqueous solution was dropped on the detached descending abdominal aorta. Five minutes later, the globe was removed, and the affected site was washed three times with physiological saline to stop the reaction. After the elapse of 30 minutes from the stopping of the reaction, the blood pressure of the femoral artery was measured, and the pressure fall was taken as an indication of obstruction of the descending arterial. Significance of the difference in degree of the obstruction between the control group (only the solvent was administered) and the test group was assayed by X^2 -assay.

[2] = target: T1, thromboxane synthase (TXA2 synthase), bovine platelet microsome (Bos taurus, UniProt Q2KIG5); assay: Test on Inhibition of TXA2 Biosynthesis (bovine platelet microsome, TXB2 by radioimmunoassay); assay type: biochemical; details: for IC50: bovine platelet microsome, pH 7.4, prostaglandin H2 substrate
T1 construct: bovine platelet microsome; from tissue; host or cells: bovine platelets (microsome)
T1 sequence (Q2KIG5 1-533): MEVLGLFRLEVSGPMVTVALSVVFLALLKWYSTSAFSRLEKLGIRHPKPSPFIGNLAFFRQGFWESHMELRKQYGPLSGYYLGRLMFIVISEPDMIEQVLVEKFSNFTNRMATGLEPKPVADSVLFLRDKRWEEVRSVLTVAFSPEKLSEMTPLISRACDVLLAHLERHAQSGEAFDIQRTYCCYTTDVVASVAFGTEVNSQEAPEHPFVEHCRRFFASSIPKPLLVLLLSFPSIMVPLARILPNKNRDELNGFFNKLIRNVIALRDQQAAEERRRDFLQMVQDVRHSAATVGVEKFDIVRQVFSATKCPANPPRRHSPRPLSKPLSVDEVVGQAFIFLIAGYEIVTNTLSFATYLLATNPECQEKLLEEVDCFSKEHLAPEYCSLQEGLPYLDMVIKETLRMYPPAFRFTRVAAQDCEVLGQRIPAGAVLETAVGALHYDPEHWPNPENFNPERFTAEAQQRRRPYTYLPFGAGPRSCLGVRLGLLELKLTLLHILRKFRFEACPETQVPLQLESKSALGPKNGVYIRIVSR
Description: A mixture of 70 μl of bovine platelet microsome [protein: 40 μg; 100 mM tris-HCl buffer (pH=7.4)] and 10 μl of a test compound solution (100 mM tris-HCl buffer containing 10% methanol) was allowed to stand at 0° C. for 5 minutes, and 20 μl of a prostaglandin H2 solution (100 mM tris-HCl buffer supplemented with acetone containing 0.1 nmol of prostaglandin H2) was added thereto as a substrate.
The amount of thromboxane B2 (TXB2) (stable degradation product of TXA2) produced in the system was determined by radioimmunoassay [F. A. Fitzpatrick et al., Methods in Enzymology, Vol. 86, p.286 (1982)].
Inhibition of TXB2 synthesis was evaluated by IC50 (50% inhibitory concentration) or percent inhibition as calculated from equation described below, and the results obtained are shown in Table 1. [formula]

dd male mice = assay: Acute Toxicity Test (minimum lethal dose, MLD); assay type: in vivo; details: dd male mice, mortality after 7 days
Description: A test compound was given to dd male mice weighing 20±1 g (3 mice per group) per os. (p.o.; 300 mg/kg) or intraperitoneally (i.p.; 100 mg/kg). The mortality after 7 days from the administration was considered to determine the minimum lethal dose (MLD).

O=C(O)CCCC/C=C(\c1ccccc1)c1cccnc1 [CV-4151, reference compound]
Number of Obstruction Case/Number of Experiments ([1]; 0.3 mg/kg i.v.): 4/6 | Percent Obstruction ([1]; 0.3 mg/kg i.v.): 67% | Number of Obstruction Case/Number of Experiments ([1]; 1.0 mg/kg i.v.): 4/8 | Percent Obstruction ([1]; 1.0 mg/kg i.v.): 50% | Number of Obstruction Case/Number of Experiments ([1]; 3.0 mg/kg i.v.): 1/5 | Percent Obstruction ([1]; 3.0 mg/kg i.v.): 20%

O=C(O)CCCCC=C1c2cc(Br)ccc2NC(=O)c2ccncc21 [Compound I-1, 9-Bromo-11-(5-carboxypentylidene)-5,11-dihydropyrido-[4,3-c][1]benzazepin-5(6H)-one]
IC50 [2]: 32 nM | Acute Toxicity (MLD) ip (dd male mice): > 100 mg/kg | Acute Toxicity (MLD) po (dd male mice): > 300 mg/kg

Cc1cccc2c1NC(=O)c1ccncc1C2=CCCCCC(=O)O [Compound I-2, 11-(5-Carboxypentylidene)-7-methyl-5,11-dihydropyrido-[4,3-c][1]benzazepin-5(6H)-one]
inhibition at 0.1 µM ([2]; 0.1 μM (footnote *), read-out: Inhibition of TXA2 Biosynthesis, Percent inhibition at 0.1 μM): 41% | Acute Toxicity (MLD) ip (dd male mice): > 100 mg/kg | Acute Toxicity (MLD) po (dd male mice): > 300 mg/kg

COc1ccc2c(c1)C(=CCCCCC(=O)O)c1cnccc1C(=O)N2C [Compound I-3, 11-(5-Carboxypentylidene)-9-methoxy-6-methyl-5,11-dihydropyrido-[4,3-c][1]benzazepin-5(6H)-one]
IC50 [2]: 400 nM | Acute Toxicity (MLD) ip (dd male mice): > 100 mg/kg | Acute Toxicity (MLD) po (dd male mice): > 300 mg/kg

O=C(O)CCCC=C1c2ccccc2NC(=O)c2ccncc21 [Compound I-4, 11-(4-Carboxybutylidene)-5,11-dihydropyrido[4,3-c][1]-benzazepin-5(6H)-one]
IC50 [2]: 250 nM | Acute Toxicity (MLD) ip (dd male mice): > 100 mg/kg | Acute Toxicity (MLD) po (dd male mice): > 300 mg/kg

O=C(O)CCCCCCC=C1c2ccccc2NC(=O)c2ccncc21 [Compound I-5, 11-(7-Carboxyheptylidene)-5,11-dihydropyrido[4,3-c][1]-benzazepin-5(6H)-one]
IC50 [2]: 130 nM | Acute Toxicity (MLD) ip (dd male mice): > 100 mg/kg | Acute Toxicity (MLD) po (dd male mice): > 300 mg/kg

CSC1=Nc2ccccc2C(=CCCCCC(=O)O)c2cnccc21 [Compound I-6, 11-(5-Carboxypentylidene)-5-thiomethyl-11(H)-pyrido-[4,3-c][1]benzazpin]
IC50 [2]: 5 nM | Acute Toxicity (MLD) ip (dd male mice): > 100 mg/kg | Acute Toxicity (MLD) po (dd male mice): > 300 mg/kg

C/C=C/C1=Cc2ccccc2/C(=C/CCCCC(=O)O)c2cnccc21 [Compound I-7, (Z)-11-(5-Carboxypentylidene)-5-[(E)-1-propen-1-yl]-(H)-pyrido[3,4-b]benzcycloheptene]
IC50 [2]: 21 nM | Acute Toxicity (MLD) ip (dd male mice): > 100 mg/kg | Acute Toxicity (MLD) po (dd male mice): > 300 mg/kg

O=C(O)CCCC/C=C1\c2ccccc2NC(=O)c2ccncc21 [Compound I-10E, (E)-11-(5-Carboxypentylidene)-5,11-dihydropyrido[4,3-c][1]benzazepin-5(6H)-one]
IC50 [2]: 21 nM | Acute Toxicity (MLD) ip (dd male mice): > 100 mg/kg | Acute Toxicity (MLD) po (dd male mice): > 300 mg/kg

O=C(O)CCCC/C=C1/c2ccccc2NC(=O)c2ccncc21 [Compound I-10Z, (Z)-11-(5-carboxypentylidene)-5,11-dihydropyrido[4,3-c][1]benzazepin-5(6H)-one]
IC50 [2]: 16 nM | Acute Toxicity (MLD) ip (dd male mice): > 100 mg/kg | Acute Toxicity (MLD) po (dd male mice): > 300 mg/kg

O=C(O)CCCC/C=C1/c2cnccc2C(=O)N(Cc2ccccc2)c2ccccc21 [Compound I-11E, (E)-6-Benzyl-11-(5-carboxypentylidene)-5,11-dihydropyrido[4,3-c][1]benzazepin-5(6H)-one]
IC50 [2]: 8.3 nM | Acute Toxicity (MLD) ip (dd male mice): > 100 mg/kg | Acute Toxicity (MLD) po (dd male mice): > 300 mg/kg

O=C(O)CCCC/C=C1\c2cnccc2C(=O)N(Cc2ccccc2)c2ccccc21 [Compound I-11Z, (Z)-6-benzyl-11-(5-carboxypentylidene)-5,11-dihydropyrido[4,3-c][1]benzazepin-5(6H)-one]
IC50 [2]: 41 nM | Acute Toxicity (MLD) ip (dd male mice): > 100 mg/kg | Acute Toxicity (MLD) po (dd male mice): > 300 mg/kg

CN1C(=O)c2ccncc2/C(=C/CCCCC(=O)O)c2ccccc21 [Compound I-12E, (E)-11-(5-Carboxypentylidene)-6-methyl-5,11-dihydropyrido[4,3-c][1]benzazepin-5(6H)-one]
IC50 [2]: 20 nM | Acute Toxicity (MLD) ip (dd male mice): > 100 mg/kg | Acute Toxicity (MLD) po (dd male mice): > 300 mg/kg

COC1=Nc2ccncc2/C(=C\CCCCC(=O)O)c2ccccc21 [Compound I-13Z, (Z)-11-(5-carboxypentylidene)-6-methoxy-11H-pyrido[4,3-c][2]benzazepin]
IC50 [2]: 3.5 nM | Acute Toxicity (MLD) ip (dd male mice): > 100 mg/kg | Acute Toxicity (MLD) po (dd male mice): > 300 mg/kg

O=C(O)CCCC/C=C1/c2cnccc2NC(=O)c2ccccc21 [Compound I-14E, (E)-11-(5-Carboxypentylidene)-6,11-dihydropyrido[4,3-c][2]benzazepin-6(5H)-one]
IC50 [2]: 22 nM | Acute Toxicity (MLD) ip (dd male mice): > 100 mg/kg | Acute Toxicity (MLD) po (dd male mice): > 300 mg/kg

O=C(O)CCCC/C=C1\c2cnccc2NC(=O)c2ccccc21 [Compound I-14Z, (Z)-11-(5-Carboxypentylidene)-6,11-dihydropyrido[4,3-c][2]benzazepin-6(5H)-one]
IC50 [2]: 451 nM | Acute Toxicity (MLD) ip (dd male mice): > 100 mg/kg | Acute Toxicity (MLD) po (dd male mice): > 300 mg/kg

O=C(O)CCCCC=C1c2cnccc2CNc2ccccc21 [Compound I-15, 11-(5-Carboxypentylidene)-11H-5,6-dihydropyrido[4,3-c][1]benzazepin]
IC50 [2]: 22 nM | Acute Toxicity (MLD) ip (dd male mice): > 100 mg/kg | Acute Toxicity (MLD) po (dd male mice): > 300 mg/kg

CSC1=Nc2ccccc2C(=CCCCCC(=O)O)c2ccncc21 [Compound I-18, 5-(5-Carboxypentylidene)-11-thiomethyl-5H-pyrido[3,4-c][1]benzazepin]
IC50 [2]: 100 nM | Acute Toxicity (MLD) ip (dd male mice): > 100 mg/kg | Acute Toxicity (MLD) po (dd male mice): > 300 mg/kg

O=C(O)CCCC/C=C1/c2ccccc2NC(=O)c2cnccc21 [Compound I-19E, (E)-5-(5-Carboxypentylidene)-5,11-dihydropyrido[3,4-c][1]benzazepin-11(10H)-one]
inhibition at 10 µM [2]: 13% | Acute Toxicity (MLD) ip (dd male mice): > 100 mg/kg | Acute Toxicity (MLD) po (dd male mice): > 300 mg/kg

O=C(O)CCCC/C=C1\c2ccccc2NC(=O)c2cnccc21 [Compound I-19Z, (Z)-5-(5-carboxypentylidene)-5,11-dihydropyrido[3,4-c][1]benzazepin-11(10H)-one]
inhibition at 10 µM [2]: 8% | Acute Toxicity (MLD) ip (dd male mice): > 100 mg/kg | Acute Toxicity (MLD) po (dd male mice): > 300 mg/kg

CN1C(=O)c2cnccc2/C(=C\CCCCC(=O)O)c2ccccc21 [Compound I-20E, (E)-5-(5-Carboxypentylidene)-10-methyl-5,11-dihydropyrido[3,4-c][1]benzazepin-11(10H)-one]
inhibition at 10 µM [2]: 10% | Acute Toxicity (MLD) ip (dd male mice): > 100 mg/kg | Acute Toxicity (MLD) po (dd male mice): > 300 mg/kg

CN1C(=O)c2cnccc2/C(=C/CCCCC(=O)O)c2ccccc21 [Compound I-20Z, (Z)-5-(5-carboxypentylidene)-10-methyl-5,11-dihydropyrido[3,4-c][1]benzazepin-11(10H)-one]
inhibition at 10 µM [2]: -23% | Acute Toxicity (MLD) ip (dd male mice): > 100 mg/kg | Acute Toxicity (MLD) po (dd male mice): > 300 mg/kg

C/C(=C\c1ccc(Cc2cccnc2)cc1)C(=O)O [OKY-1581, reference compound]
Number of Obstruction Case/Number of Experiments ([1]; 0.3 mg/kg i.v.): 5/5 | Percent Obstruction ([1]; 0.3 mg/kg i.v.): 100% | Number of Obstruction Case/Number of Experiments ([1]; 1.0 mg/kg i.v.): 4/6 | Percent Obstruction ([1]; 1.0 mg/kg i.v.): 67% | Number of Obstruction Case/Number of Experiments ([1]; 3.0 mg/kg i.v.): 0/3 | Percent Obstruction ([1]; 3.0 mg/kg i.v.): 0%
